pIC50: −log10 of the molar value. “And” between values parts separate entries of the source, which are not always exact repeats. Identical values can stand only once. Like-named read-outs stand apart in the source and are kept apart here.
Tests used:
[1] = test system: human HT29 colorectal adenocarcinoma; set-up: species or system mouse; details: in vivo, ip, 100 mg/kg
[2] = test system: metastatic cancer of the colon or rectum; details: 350 mg/m^2 30-minute iv infusion once every 3 weeks; 132 previously treated patients; cited from earlier work
[3] = cited from earlier work
[4] = test system: murine P388 leukemic tumor cells; assay: in vivo; details: P388
Description: (§1) For example, B6D2F1 mice (n=8/group) were inoculated subcutaneously (sc) in the right flank with 1×10^6 murine L1210 leukemic tumor cells. […] Test agents were administered on multiple treatment regimen (q3d×5) to yield optimal dose schedule benefit. Vehicle control treated mice served as the negative control group; mice treated with the bioreduced parent compounds, vincristine and vinblastine, dosed at their […] (MTDs), served as the positive control groups. Tumors were measured with calipers twice weekly and tumor volume calculated using the formula: Tumor Volume (mm^3)=((width)^2×length)/2. Animals were monitored for signs of toxicity and weighed daily for the first 5 days of the study and then twice-weekly until the study end. As pre-defined in the protocol, each animal was actively euthanized when its tumor reached the pre-determined endpoint size of 2000 mm^3 or at the conclusion of the study (day 37) whichever came first. The time to endpoint (TTE) was calculated for each mouse as TTE (days)=(log10(endpoint volume mm^3)−b)/m where b is the intercept and m is the slope of the line obtained by linear regression of a log-transformed tumor growth data set. Treatment outcome was determined from tumor growth delay (TGD) which is defined as the increase in median TTE in a treatment (T) group as compared to the control (C) group (TGD=T−C) expressed in days or as a percentage of the median TTE of the control group % TGD=((T−C)/C)×100. […] Statistical significance between the treated vs. control groups was evaluated by logrank analysis.
(§2) This model was developed by subcutaneously inoculating B6D2F1 mice (n=8/group) with 1×10^6 murine P388 leukemic tumor cells using similar methodology to that described above for L1210. […] Agents were administered on multiple treatment regimen (q3d×5) to yield optimal dose schedule benefit. Efficacy of treatment with the N-oxide analogs was determined by Tumor Growth Delay (TGD) and Kaplan-Meier survival analysis as described for L1210, the exception being that the conclusion of the study was day 45 or the predefined endpoint size of 2000 mm^3 whichever came first. Vehicle control treated mice served as the negative control group; mice treated with the standard agents, vincristine and vinblastine, dosed at their MTDs, served as the positive control groups.

[5] = test system: human H460 lung adenocarcinoma
Description: (§3) Tumor cell line were cultured in DMEM-10% FBS under standard conditions. One-hundred mm plastic culture dishes were seeded with 1×10^6 tumor cells and treated with vinca alkaloids or N-oxide analogs at a dose range of 0.01-100 nM. Cells were exposed with gentle rocking to a constant level of low oxygen (0.2% O2-5% CO2-balance N2) in a hypoxia apparatus (INVIVO2400 Hypoxia Workstation, Ruskin Technology) for 14 hr at 37° C. Identically treated cells were incubated under normoxia (air-5% CO2) at 37° C. Cells were harvested and replated in fresh medium at a density of 1×10^3 cells/well in 48-well plastic culture plates to assess viability 24-72 hr later. Briefly, Alamar Blue was added to replicate wells on Day 0 and Day 3, and cells were incubated for a further 3-6 hr at 37° C. before fluorescence readings using a plate reader (530-560 nm excitation, 590 emission). The percent inhibition of proliferation was calculated and plotted against control-treated cells at each drug concentration. […] The Hypoxia Cytotoxicity Ratio (HCR) was determined as the ratio of the IC50 of the compound under normoxic conditions vs. hypoxic conditions.

[6] = test system: human H460 lung adenocarcinoma; assay: cells; details: NCI-H460, 14 h
Description: as §3

[7] = test system: murine L1210 leukemic tumor cells; assay: in vivo; details: L1210
Description: as §1

in vivo [8] = details: B6D2F1, mouse, in vivo, iv
Description: as §1

in vivo [9] = details: female, nude, mouse, iv
Description: In one example, female nude mice (n=10) were inoculated subcutaneously with 15×10^6 human K562 myelogenous leukemia cells in a 1:1 ratio with matrigel on the right flank. Tumor volumes were monitored and calculated using the formula: Tumor volume=(a^2×b/2) where ‘a’ is the smallest diameter and ‘b’ is the largest diameter. Once the established tumors reached approximately 75-150 mm^3 (individual tumor volumes may range from […]) the mice were assigned to the various vehicle control and treatment groups such that the mean tumor volumes in the treated groups were within 10% of the mean tumor weight in the vehicle control group. On the same day (day 1) and days 4, 7, 10, and 13, vinca-alkaloid N-oxide analogs (VCR-NO, VBL-NO) were administered intravenously according to a q3d×5 schedule. Mice were also treated with vehicle (negative control) and the standard agents, vinblastine and vincristine (positive controls). Tumor volumes were recorded three times a week starting when tumors were palpable and including the day of study termination. Animals were monitored for signs of toxicity and body weights were recorded twice a week starting on the first day of treatment and including the day of study termination. […] The mean day of sacrifice were calculated to determine the tumor growth delay and tumor growth inhibition effects of each test article as compared to vehicle control. […] Statistical significance between the treated vs. control groups was evaluated by logrank analysis.

in vivo [10] = details: B6D2F1, mouse, in vivo, iv; remark: listed apart in the source
Description: as §1, §2

[11] = 0.6-1 mg/kg iv q3d×5; during the course of treatment
Description: Body weights were monitored twice weekly and up to 2 weeks following treatment. Mice were also injected iv with 0.6 or 1 mg/kg vincristine using the same q3d×5 schedule as a positive control.

in vivo [12] = details: female, nude, mouse, iv; remark: listed apart in the source
[13] = Formation of clear solution in aqueous vehicles; type: physicochemical; details: de-ionized water and 5% dextrose/water solutions
[14] = Grade III-IV, Naïve pts (n = 48)
[15] = Grade III-IV, Pre-treated patients (n = 165)
[16] = non-Hodgkin's lymphoma, 9 mcg/kg/d IV days 1-5, every 21 days
[17] = non-Hodgkin's lymphoma, 9 or 18 mcg/kg/d IV days 1-5, every 21 days, Grade III-IV
[18] = non-Hodgkin's lymphoma, 18 mcg/kg/d IV days 1-5, every 21 days

For CCc1c2c(nc3ccc(OC(=O)N4CCC(N5CCCCC5)CC4)cc13)-c1cc3c(c(=O)n1C2)COC(=O)[C@]3(O)CC [CPT-11, 7-ethyl-10[4-(1-piperidino)-1-piperidino]carbonyloxycamptothecin, reference compound], the “Tumor Growth Delay” value [1] is listed as 60%, the intent-to-treat response rate [2] is listed as 12.1% and the Alopecia [3, 14] is listed as “Alopecia 54%”. For the same molecule, the “Delayed Diarrhea” value [3, 14] was “Delayed Diarrhea 35%”, the Nausea/Vomiting [3, 14] was “Nausea/Vomiting 13%” and the Thrombocytopenia [3, 14] was “Thrombocytopenia 2%”. For the same molecule, the “Leukopenia/Neutropenia Toxicity” value ([3]; Grade III-IV, Naïve pts) was 48%, the Alopecia [3, 15] was “Alopecia 53%” and the “Delayed Diarrhea” value [3, 15] was “Delayed Diarrhea 39%”. For the same molecule, the Nausea/Vomiting [3, 15] was “Nausea/Vomiting 22%”, the Thrombocytopenia [3, 15] was “Thrombocytopenia 3%” and the “Leukopenia/Neutropenia Toxicity” value ([3]; Grade III-IV, Pretreated pts) was 47%. The “Documented Infection” value ([3]; Grade III-IV) was 5%, the “Neutropenic Fever” value ([3]; Grade III-IV) was “Neutropenic Fever 14%” and the “Anemia Grade III-IV” value ([3]; Naïve pts (n = 48)) was 8%. For the same molecule, the “Anemia Grade III-IV” value ([3]; Pre-treated patients (n = 165)) was 10%.

For CC[C@]1(O)C[C@@H]2CN(CCc3c([nH]c4ccccc34)[C@@](C(=O)OC)(c3cc4c(cc3OC)N(C)[C@H]3[C@@](O)(C(=O)OC)[C@H](OC(C)=O)[C@]5(CC)C=CCN6CC[C@]43[C@@H]65)C2)C1 [Vinblastine, vinblastine], the “Median Survival” value ([4]; 5 mg/kg i.v. q3d×5) was 30.8 days, the “Tumor Growth Delay” value ([4]; 5 mg/kg i.v. q3d×5) was 149% and the “Hypoxia Cytotoxicity Ratio (HCR)” value [5] was 1. The pIC50 ([6]; read-out: IC50 Air) was 7.70, the pIC50 ([6]; read-out: IC50 Hypoxia) was 7.77 and the “Median Survival” value ([7]; 5 mg/kg i.v. q3d×5) was 24.3 days. For the same molecule, the “Tumor Growth Delay” value ([7]; 5 mg/kg i.v. q3d×5) was 34%, the MTD (in vivo [8]) was 5 mg/kg and the MTD (in vivo [9]) was 2.5 mg/kg. For the same molecule, the “median day of death” value (4 mg/kg ip q3d×5) was 10.8 days and the “median day of death” value (6 mg/kg ip q3d×5) was 9.8 days.

With CC[C@]1(O)C[C@H]2CN(CCc3c([nH]c4ccccc34)[C@@](C(=O)OC)(c3cc4c(cc3OC)N(C=O)[C@H]3[C@@](O)(C(=O)OC)[C@H](OC(C)=O)[C@]5(CC)C=CCN6CC[C@]43[C@@H]65)C2)C1 [Vincristine, vincristine] the MTD (in vivo [10]) was 1 mg/kg, the “Median Survival” value ([4]; 1 mg/kg i.v. q3d×5) was 20.8 days and the “Tumor Growth Delay” value ([4]; 1 mg/kg i.v. q3d×5) was 54%. For the same molecule, the “Hypoxia Cytotoxicity Ratio (HCR)” value [5] was 1.1, the pIC50 ([6]; read-out: IC50 Air) was 7.77 and the pIC50 ([6]; read-out: IC50 Hypoxia) was 7.82. The body weight loss [11] was “significant body weight loss”, the “Median Survival” value ([7]; 1 mg/kg i.v. q3d×5) was 19.6 days and the “Tumor Growth Delay” value ([7]; 1 mg/kg i.v. q3d×5) was 8%. The MTD (in vivo [8]) was 1 mg/kg, the MTD (in vivo [9]) was 1.5 mg/kg and the MTD (in vivo [12]) was 1.5 mg/kg.

For Arsenic trioxide, the “Anemia Grade III-IV” value ([3]; Grade III-IV) is given as “Anemia Grade III-IV 5%”, the Arthralgia/Myalgia ([3]; Grade III-IV) is given as “Arthralgia/Mylagia 13%” and the Convulsions ([3]; Grade III-IV) is given as “Convulsions 5%”. For the same molecule, the “Disseminated Intravascular Coagulation” value ([3]; Grade III-IV) was 8%, the Dyspnea ([3]; Grade III-IV) was “Dyspnea 10%” and the “Febrile Neutropenia” value ([3]; Grade III-IV) was “Febrile Neutropenia 8%”. The Fever ([3]; Grade III-IV) was “Fever 5%”, the Hyperglycemia ([3]; Grade III-IV) was “Hyperglycemia 13%” and the Hypokalemia ([3]; Grade III-IV) was “Hypokalemia 13%”. For the same molecule, the Hypomagnesemia ([3]; Grade III-IV) was “Hypomagnesemia 13%”, the Hypoxia ([3]; Grade III-IV) was “Hypoxia 10%” and the Leukocytosis ([3]; Grade III-IV) was “Leukocytosis 3%”. For the same molecule, the Neutropenia ([3]; Grade III-IV) was 10%, the Paresthesias ([3]; Grade III-IV) was “Paresthesias 5%” and the Sepsis ([3]; Grade III-IV) was “Sepsis 5%”. For the same molecule, the Thrombocytopenia ([3]; Grade III-IV) was “Thrombocytopenia 12%”.

In the case of Denileukin diftitox, the Leukopenia [3, 16] is listed as “Leukopenia 6%”, the Neutropenia [3, 16] is listed as “Neutropenia 3%” and the “Constitutional Symptoms” value [3, 17] is listed as “Symptoms 37-47%”. For the same molecule, the Gastrointestinal [3, 17] was “Gastrointestinal 20-36%”, the Infection [3, 17] was “Infection 33-43%” and the “Infusion-Related Events: Back Pain” value [3, 17] was “Back Pain 6-11%”. For the same molecule, the “Infusion-Related Events: Chest Pain/Tightness” value [3, 17] was “Tightness 9%”, the “Infusion-Related Events: Dyspnea” value [3, 17] was “Dyspnea 6-11%” and the “Infusion-Related Events: Hypotension” value [3, 17] was “Hypotension 8-11%”. For the same molecule, the “Infusion-Related Events: Pruritis” value [3, 17] was “Pruritis 6%”, the “Infusion-Related Events: Vasodilation” value [3, 17] was “Vasodilation 3%” and the Rash [3, 17] was “Rash 19-23%”. The “Right Heart Failure” value [3, 17] was “Right Heart Failure 3-6%”, the “Thrombotic Events” value [3, 17] was “Thrombotic Events 3-8%” and the “Vascular Leak Syndrome” value [3, 17] was “Syndrome 17-25%”. The Leukopenia [3, 18] was “Leukopenia 3%” and the Neutropenia [3, 18] was “Neutropenia 3%”.

In the case of Gemcitabine + Cisplatin, the “Anemia Grade III-IV” value ([3]; Grade III-IV) is listed as 25% and 27%, the “Cardiac Dysrhythmia” value ([3]; Grade III-IV) is listed as 2.8% and the Dyspnea ([3]; Grade III-IV) is listed as “Dyspnea 7%”. The “Elevated Creatinine” value ([3]; Grade III-IV) was “Elevated Creatinine 4.8%”, the Nausea ([3]; Grade III-IV) was “Nausea 27%” and the Neurohearing ([3]; Grade III-IV) was “Neurohearing 6%”. The “Neutropenic Sepsis” value ([3]; Grade III-IV) was “Neutropenic Sepsis 1%”, the Pulmonary ([3]; Grade III-IV) was “Pulmonary 3%” and the Vomiting ([3]; Grade III-IV) was “Vomiting 23%”. For the same molecule, the Alopecia ([3]; Grade III) was 10.5%, the Diarrhea ([3]; Grade III) was “Diarrhea (Grade III) 3%” and the Granulocytopenia ([3]; Grade III) was “Grade III 21.7%”. The Hematuria ([3]; Grade III) was 4.5%, the Nausea/Vomiting ([3]; Grade III) was “(Grade III) 22%” and the Neuromotor ([3]; Grade III) was 11.5%. For the same molecule, the Neutropenia ([3]; Grade III) was 41.2%, the Granulocytopenia ([3]; Grade IV) was “Grade IV 35.3%” and the Neutropenia ([3]; Grade IV) was 29.9%.

For Liposomal doxorubicin, the “Anemia Grade III-IV” value ([3]; human, in vivo, iv) is given as 9.8%, the Leukopenia ([3]; human, in vivo, iv) is given as “Leukopenia 36%” and the Mucositis ([3]; human, in vivo, iv) is given as “Mucositis 5%”. The Nausea/Vomiting ([3]; human, in vivo, iv) was “Nausea/Vomiting 15%”, the “Neutropenia Grade IV” value ([3]; human, in vivo, iv) was “Grade IV 6%” and the “Neutropenic Fever” value ([3]; human, in vivo, iv) was “Neutropenic Fever 11%”. For the same molecule, the “Palmar-Plantar Erythrodysesthesia” value ([3]; human, in vivo, iv) was “Erythrodysesthesia 29%”, the “Peripheral Neuropathy” value ([3]; human, in vivo, iv) was 6% and the Stomatitis ([3]; human, in vivo, iv) was “Stomatitis 14%”. For the same molecule, the Thrombocytopenia ([3]; human, in vivo, iv) was “Thrombocytopenia 3%”.

With Vinblastine N-Oxide Dihydrochloride the “forms a stable clear solution at” value [13] was “about 20 mg/mL”.

For “gemtuzumab: Mylotarg, Wyeth-Ayerst [reference compound]”, the “Anemia Grade III-IV” value ([3]; Grade III-IV) is listed as 47%, the Chills ([3]; Grade III-IV) is listed as “Chills 13%” and the Dyspnea ([3]; Grade III-IV) is listed as “Dyspnea 9%”. For the same molecule, the Fever ([3]; Grade III-IV) was “Fever 15%”, the Hyperbilirubinemia ([3]; Grade III-IV) was “Hyperbilirubinemia 23%” and the Hyperglycemia ([3]; Grade III-IV) was “Hyperglycemia 12%”. For the same molecule, the Leukopenia ([3]; Grade III-IV) was 96%, the Nausea ([3]; Grade III-IV) was “Nausea 9%” and the Neutropenia ([3]; Grade III-IV) was 98%. The “Neutropenic Fever” value ([3]; Grade III-IV) was “Neutropenic Fever 7%”, the Pneumonia ([3]; Grade III-IV) was “Pneumonia 7%” and the Sepsis ([3]; Grade III-IV) was “Sepsis 16%”. The Thrombocytopenia ([3]; Grade III-IV) was “Thrombocytopenia 99%” and the “patients with grade III or IV pneumonia” value ([3]; acute myelogenous patients, 9 mg/m^2 IV, two doses 14 days apart) was 7%.

Reference: patent publication US8048872B2, “Treatment of hyperproliferative diseases with vinca alkaloid N-oxide and analogs” (Stat of Oregon Acting by and Through The Oregon State Board …, priority 2006, dated 2011)
